How the values were obtained:
Experiment in all cases: relative viability (nuclei count vs DMSO), 5 days (fraction); higher = more cells survive
Cediranib = compound: COc1cc2c(Oc3ccc4[nH]c(C)cc4c3F)ncnc2cc1OCCCN1CCCC1 [Cediranib]
Procedure, shortened: (§1)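 Lung cancer cell lines in 1536-well plates were exposed by pinning to five library-drug doses (not always all listed) √10 apart, following an overnight hold at 37 °C. MetaXpress counted Hoechst-stained nuclei from 4× images taken after 5 days without medium change. Viability is the median ratio of treated-well to vehicle-well nuclei across plates. Plates required control CV below 25% and at least one doubling.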

Decitabine = compound: Nc1ncn([C@H]2C[C@H](O)[C@@H](CO)O2)c(=O)n1 [Decitabine]
Procedure, shortened: as §1

Halofuginone = compound: O=C(C[C@H]1NCCC[C@@H]1O)Cn1cnc2cc(Br)c(Cl)cc2c1=O (racemic) [Halofuginone]
Procedure, shortened: as §1

Cell Line | relative viability (Cediranib; 0.04 µM) | relative viability (Cediranib; 0.1265 µM) | relative viability (Cediranib; 0.4 µM) | relative viability (Cediranib; 1.265 µM) | relative viability (Cediranib; 4 µM) | relative viability (Decitabine; 0.04 µM) | relative viability (Decitabine; 0.1265 µM) | relative viability (Decitabine; 0.4 µM) | relative viability (Decitabine; 1.265 µM) | relative viability (Decitabine; 2 µM, anchor plate) | relative viability (Decitabine; 4 µM) | relative viability (Halofuginone; 0.001 µM) | relative viability (Halofuginone; 0.003162 µM) | relative viability (Halofuginone; 0.01 µM) | relative viability (Halofuginone; 0.03162 µM) | relative viability (Halofuginone; 0.1 µM)
NCI-H1355 | 0.944 | 1.04 | 0.898 | 0.944 | 1.06 | 0.768 | 0.643 | 0.42 | 0.338 | 0.362 | 0.278 | 0.989 | 1.02 | 0.94 | 0.941 | 0.899
NCI-H1395 | 0.885 | 0.832 | 0.887 | 0.884 | 0.993 | 0.627 | 0.671 | 0.729 | 0.508 | 0.744 | 0.528 | 0.984 | 0.872 | 0.809 | 0.868 | 0.768
NCI-H1437 | 1.08 | 0.969 | 0.998 | 0.972 | 1.06 | 0.744 | 0.73 | 0.542 | 0.424 | 0.557 | 0.425 | 0.976 | 1.02 | 1.01 | 0.984 | 0.845
NCI-H1563 | 0.97 | 1.39 | 1.03 | 0.961 | 1.13 | 1.07 | 1.04 | 1.43 | 0.986 |  | 1.03 | 1.02 | 1.06 | 0.885 | 0.664 | 0.486
NCI-H1623 | 1 | 0.599 | 0.879 | 1.04 | 1.07 | 0.864 | 0.749 | 0.664 | 0.52 |  | 0.516 | 0.947 | 0.873 | 0.966 | 1.07 | 0.875
NCI-H1648 | 0.627 | 0.423 | 0.71 | 0.773 | 0.791 | 0.82 | 0.733 | 0.474 | 0.387 | 0.509 | 0.366 | 1.12 | 0.809 | 1.06 | 0.951 | 1.13
NCI-H1650 | 1 | 0.962 | 0.833 | 0.8 | 0.822 | 0.599 | 0.657 | 0.507 | 0.346 | 0.422 | 0.338 | 1 | 1.01 | 0.883 | 0.811 | 0.19
NCI-H1651 | 0.977 | 0.963 | 0.96 | 0.951 | 0.999 | 0.954 | 1.01 | 0.961 | 0.799 | 0.64 | 0.767 | 0.983 | 1.14 | 0.966 | 0.934 | 0.735
NCI-H1666 | 1.02 | 1.18 | 0.989 | 1.01 | 1.02 | 0.938 | 0.9 | 0.866 | 0.827 | 0.764 | 0.851 | 0.993 | 0.936 | 0.991 | 1.06 | 0.991
NCI-H1703 | 0.819 | 0.677 | 0.471 | 0.363 | 0.393 | 0.772 | 0.669 | 0.288 | 0.332 |  | 0.246 | 0.931 | 0.994 | 0.886 | 0.668 | 0.519
NCI-H1734 | 0.897 | 0.951 | 0.96 | 0.821 | 1.09 | 0.804 | 0.829 | 0.69 | 0.498 | 0.517 | 0.363 | 1 | 1.06 | 0.985 | 0.984 | 0.751
NCI-H1755 | 1.1 | 0.861 | 0.954 | 1.05 | 1.01 | 0.95 | 0.949 | 0.848 | 0.598 | 0.717 | 0.515 | 1.02 | 1.04 | 1.01 | 1.01 | 0.978
NCI-H1792 | 0.862 | 0.846 | 0.84 | 0.931 | 0.795 | 0.802 | 0.857 | 0.889 | 0.534 | 0.526 | 0.507 | 0.923 | 0.897 | 0.902 | 0.913 | 0.633
NCI-H1793 | 0.786 | 0.891 | 0.704 |  | 0.978 | 0.715 | 0.756 | 0.707 | 0.498 | 0.547 | 0.398 | 1.01 | 0.811 | 0.904 | 1.04 | 0.557
NCI-H1915 | 0.969 | 0.832 | 0.96 | 1.04 | 0.996 | 0.502 | 0.421 | 0.329 | 0.26 | 0.265 | 0.292 | 0.957 | 1.13 | 0.959 | 0.998 | 0.943
NCI-H1944 | 0.93 | 0.955 | 0.918 | 0.883 | 0.936 | 0.9 | 0.869 | 0.541 | 0.381 | 0.429 | 0.441 | 0.962 | 0.951 | 0.918 | 0.963 | 0.922
NCI-H1975 | 0.974 | 0.983 | 0.914 | 0.956 | 0.939 | 0.594 | 0.526 | 0.372 | 0.352 | 0.394 | 0.358 | 1.05 | 0.943 | 0.953 | 0.692 | 0.442
NCI-H1993 | 0.73 | 0.878 | 0.857 | 0.726 | 0.87 | 0.863 | 0.844 | 0.929 | 0.755 | 0.596 | 0.757 | 1.23 | 0.978 | 0.893 | 1.11 | 0.749

Cell Line | relative viability (Cediranib; 0.04 µM) | relative viability (Cediranib; 0.1265 µM) | relative viability (Cediranib; 0.4 µM) | relative viability (Cediranib; 1.265 µM) | relative viability (Cediranib; 4 µM) | relative viability (Decitabine; 0.04 µM) | relative viability (Decitabine; 0.1265 µM) | relative viability (Decitabine; 0.4 µM) | relative viability (Decitabine; 1.265 µM) | relative viability (Decitabine; 2 µM, anchor plate) | relative viability (Decitabine; 4 µM) | relative viability (Halofuginone; 0.001 µM) | relative viability (Halofuginone; 0.003162 µM) | relative viability (Halofuginone; 0.01 µM) | relative viability (Halofuginone; 0.03162 µM) | relative viability (Halofuginone; 0.1 µM)
NCI-H2009 | 1.01 | 0.958 | 0.984 | 0.988 | 1.1 | 0.837 | 0.706 | 0.504 | 0.349 | 0.387 | 0.343 | 1.04 | 1.18 | 0.948 | 0.883 | 0.597
NCI-H2023 | 1 | 1.02 | 0.902 | 0.878 | 1.19 | 0.678 | 0.516 | 0.249 | 0.206 | 0.227 | 0.172 | 0.98 | 1.05 | 0.931 | 0.516 | 0.082
NCI-H2085 | 1 | 1.08 | 0.946 | 0.99 | 0.97 | 0.812 | 0.768 | 0.65 | 0.528 | 0.559 | 0.528 | 1.03 | 1.07 | 0.989 | 1.04 | 0.935
NCI-H2087 | 1.09 | 1.18 | 0.776 | 1.14 | 1.27 | 0.574 | 0.567 | 0.561 | 0.296 | 0.294 | 0.367 | 1.09 | 1.21 | 0.975 | 0.886 | 0.836
NCI-H2126 | 0.971 | 0.987 | 0.955 | 0.809 | 0.957 | 0.906 | 0.958 | 0.709 | 0.633 | 0.573 | 0.582 | 1.02 | 0.992 | 0.949 | 0.968 | 0.88
NCI-H2170 | 1 | 0.764 | 0.983 | 0.828 | 1.03 | 0.839 | 0.746 | 0.685 | 0.475 | 0.471 | 0.473 | 0.988 | 1.05 | 0.917 | 0.982 | 0.991
NCI-H2228 | 1.18 | 1.08 | 0.763 | 1.06 | 1.13 | 0.665 | 0.539 | 0.426 | 0.283 |  | 0.275 | 0.966 | 0.995 | 0.981 | 0.642 | 0.194
NCI-H2342 | 1 | 1.1 | 0.899 | 0.746 | 1.07 | 0.977 | 1.05 | 0.97 | 0.671 | 0.745 | 0.645 | 1.07 | 0.956 | 0.961 | 0.963 | 0.95
NCI-H2347 | 1.02 | 0.84 | 0.983 | 1.02 | 1.11 | 0.885 | 0.887 | 0.697 | 0.6 | 0.587 | 0.66 | 1.08 | 1.01 | 1.02 | 1.02 | 0.886
NCI-H2405 | 0.999 | 0.914 | 0.994 | 1 | 1.02 | 0.898 | 0.903 | 0.758 | 0.596 | 0.745 | 0.49 | 1.16 | 1.03 | 1.01 | 0.96 | 0.876
NCI-H3122 | 1.09 | 0.765 | 0.977 | 1 | 1.01 | 0.964 | 0.964 | 0.624 | 0.473 | 0.471 | 0.647 | 1 | 0.984 | 0.968 | 0.941 | 0.95
PC-3 [JPC-3] | 0.921 | 0.959 | 0.933 | 1.09 | 0.973 |  | 0.85 | 0.537 | 0.611 | 0.847 | 0.627 | 1.06 | 1.04 | 1.01 | 1.09 | 0.982
PC-14 | 1.06 | 1.08 | 0.959 | 0.931 | 0.998 | 0.393 | 0.449 | 0.156 | 0.149 | 0.218 | 0.163 | 1.02 | 1 | 0.93 | 0.639 | 0.348
RERF-LC-KJ | 1.01 | 0.862 | 0.946 | 0.963 | 1.05 | 0.951 | 0.967 | 0.561 | 0.688 | 0.728 | 0.642 | 1.08 | 1.07 | 0.951 | 0.966 | 0.912
SK-LU-1 | 1.12 | 1.02 | 0.957 | 0.924 | 1.11 | 0.788 | 0.703 | 0.46 | 0.482 | 0.631 | 0.411 | 1.09 | 1.05 | 1.04 | 1.05 | 0.588
SK-MES-1 | 1.06 | 1.12 | 0.961 | 0.967 | 1.09 | 0.827 | 0.707 | 0.461 | 0.339 | 0.378 | 0.305 | 1.04 | 1.05 | 0.978 | 0.827 | 0.271
SW 900 | 0.811 | 0.774 | 0.737 | 0.835 | 0.952 | 0.465 | 0.477 | 0.298 | 0.25 | 0.433 | 0.265 | 0.911 | 0.888 | 0.664 | 1.02 | 0.569
SW 1573 | 1.01 | 0.974 | 0.969 | 0.828 | 0.927 | 0.815 | 0.944 | 0.732 | 0.486 | 0.504 | 0.379 | 1.08 | 1.06 | 0.908 | 0.692 | 0.278

From the supplement of paper PMC10307832
